From ChEMBL document CHEMBL4118282 (Bioorg Med Chem Lett, 2018)

What was measured:
[1] = Cytotoxicity against human MT4 cells assessed as reduction in cell viability after 5 days by MTT assay; assay type: cell-based
[2] = Therapeutic index, ratio of CC50 for human MT4 cells to EC50 for HIV1 3B […] infected in human MT4 cells; assay type: toxicity, cell-based; settings: read-out: Ratio CC50/EC50

| Structure (SMILES) | CC50 at 120 h [1] | selectivity ratio [2] |
| --- | --- | --- |
| CC(C)[C@H](NC(=O)N(C)Cc1c[se]c(-c2ccccc2)n1)C(=O)N[C@@H](Cc1ccccc1)C[C@H](O)[C@H](Cc1ccccc1)NC(=O)OCc1cncs1 | 21 µM | 124 |
| CC(C)c1nc(CN(C)C(=O)N[C@H](C(=O)N[C@@H](Cc2ccccc2)C[C@H](O)[C@H](Cc2ccccc2)NC(=O)OCc2cncs2)C(C)C)c[se]1 | 42 µM | 76 |
